Reference: the supplement of paper PMC10307832

What was measured:
Assay in all cases: relative viability (nuclei count vs DMSO), 5 days (fraction); higher = more cells survive
NCI-H1755 = system: NCI-H1755
How it was run: (§1)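 Lung cancer cell lines in 1536-well plates got either a single drug or a fixed anchor-drug dose together with five library-drug doses (not always all listed) in √10 steps, by pin tool, on the day after seeding. Nuclei were counted after 5 days, and relative viability is the treated-to-vehicle ratio of nuclei counts. Values are medians of duplicate plates.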

NCI-H2009 = system: NCI-H2009
How it was run: as §1

NCI-H2228 = system: NCI-H2228
How it was run: as §1

NCI-H2347 = system: NCI-H2347
How it was run: as §1

NCI-H2405 = system: NCI-H2405
How it was run: as §1

NCI-H358 = system: NCI-H358
How it was run: as §1

NCI-H520 = system: NCI-H520
How it was run: as §1

NCI-H727 = system: NCI-H727
How it was run: as §1

NCI-H838 = system: NCI-H838
How it was run: as §1

SW 1573 = system: SW 1573
How it was run: as §1

UMC-11 = system: UMC-11
How it was run: as §1

Question: What does the source list for `O=c1[nH]c2ccccc2n1C1CCN(CCCC(c2ccc(F)cc2)c2ccc(F)cc2)CC1` [Pimozide] + C[C@]1(O)C[C@@H](c2nc(-c3ccc4ccc(-c5ccccc5)nc4c3)c3c(N)nccn32)C1 [Linsitinib] (partner 1 µM)?
Answer: relative viability (NCI-H1755; first compound 0.08 µM): 0.94; relative viability (NCI-H1755; first compound 0.253 µM): 1.02; relative viability (NCI-H1755; first compound 0.8 µM): 0.97; relative viability (NCI-H1755; first compound 2.53 µM): 0.939; relative viability (NCI-H1755; first compound 8 µM): 0.845; relative viability (NCI-H2009; first compound 0.08 µM): 1.19; relative viability (NCI-H2009; first compound 0.253 µM): 1.21; relative viability (NCI-H2009; first compound 0.8 µM): 1.2; relative viability (NCI-H2009; first compound 2.53 µM): 1.2; relative viability (NCI-H2009; first compound 8 µM): 1.01; relative viability (NCI-H2228; first compound 0.08 µM): 0.475; relative viability (NCI-H2228; first compound 0.253 µM): 0.909; relative viability (NCI-H2228; first compound 0.8 µM): 0.404; relative viability (NCI-H2228; first compound 2.53 µM): 0.392; relative viability (NCI-H2228; first compound 8 µM): 0.291; relative viability (NCI-H2347; first compound 0.08 µM): 1.03; relative viability (NCI-H2347; first compound 0.253 µM): 0.941; relative viability (NCI-H2347; first compound 0.8 µM): 0.836; relative viability (NCI-H2347; first compound 2.53 µM): 0.944; relative viability (NCI-H2347; first compound 8 µM): 0.958; relative viability (NCI-H2405; first compound 0.08 µM): 0.888; relative viability (NCI-H2405; first compound 0.253 µM): 0.771; relative viability (NCI-H2405; first compound 0.8 µM): 0.876; relative viability (NCI-H2405; first compound 2.53 µM): 0.814; relative viability (NCI-H2405; first compound 8 µM): 0.7; relative viability (NCI-H358; first compound 0.08 µM): 0.739; relative viability (NCI-H358; first compound 0.253 µM): 0.852; relative viability (NCI-H358; first compound 0.8 µM): 0.649; relative viability (NCI-H358; first compound 2.53 µM): 0.643; relative viability (NCI-H358; first compound 8 µM): 0.693; relative viability (NCI-H520; first compound 0.08 µM): 0.894; relative viability (NCI-H520; first compound 0.253 µM): 1; relative viability (NCI-H520; first compound 0.8 µM): 1.01; relative viability (NCI-H520; first compound 2.53 µM): 0.995; relative viability (NCI-H520; first compound 8 µM): 0.937; relative viability (NCI-H727; first compound 0.08 µM): 0.285; relative viability (NCI-H727; first compound 0.253 µM): 0.337; relative viability (NCI-H727; first compound 0.8 µM): 0.307; relative viability (NCI-H727; first compound 2.53 µM): 0.281; relative viability (NCI-H727; first compound 8 µM): 0.526; relative viability (NCI-H838; first compound 0.08 µM): 1.01; relative viability (NCI-H838; first compound 0.253 µM): 0.999; relative viability (NCI-H838; first compound 0.8 µM): 0.885; relative viability (NCI-H838; first compound 2.53 µM): 1.01; relative viability (NCI-H838; first compound 8 µM): 1.04; relative viability (SW 1573; first compound 0.08 µM): 0.744; relative viability (SW 1573; first compound 0.253 µM): 0.778; relative viability (SW 1573; first compound 0.8 µM): 0.75; relative viability (SW 1573; first compound 2.53 µM): 0.721; relative viability (SW 1573; first compound 8 µM): 0.853; relative viability (UMC-11; first compound 0.08 µM): 1.02; relative viability (UMC-11; first compound 0.253 µM): 0.977; relative viability (UMC-11; first compound 0.8 µM): 1.05; relative viability (UMC-11; first compound 2.53 µM): 1.07; relative viability (UMC-11; first compound 8 µM): 1.09
